Literature values as cited in patent US8978468B2, “Nonvisual indication of an unwanted chemical in an ingestible substance” (priority 2009, dated 2015).
Read-outs that look alike come from different tables or passages of the source.

Legend:
[1] = species and route not given
[2] = system: mammal (species unspecified); details: route not given

## 2-aminoethanol
rat; oral
  Toxic Dose oral-rat LD50: oral-rat LD50 1720 mg/kg

## 2-methylpropane-1-thiol
rat; gavage
  Toxic Dose gavage-rat LD50: gavage-rat LD50 7168 mg/kg
rat; oral
  Toxic Dose oral-rat LD50: oral-rat LD50 7168 mg/kg

## CC1OCCC1S (stereo not drawn) [2-methyltetrahydrofuran-3-thiol]
mouse; gavage
  Toxic Dose gavage-mouse LD50: gavage-mouse LD50 1860 mg/kg

## CC(C)C(C)S (stereo not drawn) [3-methylbutane-2-thiol]
rat; gavage, sex: M, F
  Toxic Dose gavage-rat LD50 [sex: M, F]: 540 mg/kg

## NCCCC(=O)O [4-aminobutanoic acid]
mouse; oral
  Toxic Dose oral-mouse LD50: oral-mouse LD50 12680 mg/kg
mouse; route not given
  Toxic Dose mouse LD50: mouse LD50 7230 mg/kg

## NC1CCCCC1 [cyclohexanamine]
[1]
  Toxic Dose LD50: LD50 224 mg/kg
rat; in vivo, po
  Toxic Dose oral-rat LD50: oral-rat LD50 11 mg/kg

## SC1CCCC1 [cyclopentanethiol]
mouse; oral, sex: M, F (5/group)
  Toxic Dose oral-mouse LD50 [sex: M, F (5/group)]: (5/group)] 2680 mg/kg

## butane-1-thiol
rat; gavage
  Toxic Dose gavage-rat LD50: gavage-rat LD50 1500 mg/kg

## propan-1-amine
rat; oral
  Toxic Dose oral-rat LD50: oral-rat LD50 370 mg/kg
[2]
  Toxic Dose mammal (species unspecified) LD50: LD50 580 mg/kg

## propan-2-amine
rat; oral
  Toxic Dose oral-rat LD50: oral-rat LD50 111 mg/kg
[2]
  Toxic Dose mammal (species unspecified) LD50: LD50 500 mg/kg
